Measurements: patent US5580542A, “Method of testing for nephritis” (Kureha Kagaku Kogyo K.K., priority 1993, dated 1996)
“And” between values parts separate entries of the source, which are not always exact repeats. Identical values can stand only once. One block for each molecule: values may come before it.

Legend:
Clone 9 = assay: Test 1: acetyltransferase activity, conversion of p-aminobenzoic acid to p-acetamidobenzoic acid in culture (GC-MS); format: cell-based, rat; conditions: Clone 9 (liver); culture medium after 2 to 3 days
Description: (§1) In this test, the activity of acetyltransferase was evaluated by an in-vitro experiment with respect to p-aminobenzoic acid.
(§2) The left and right kidneys of 7 weeks-old Sprague-Dawley female rats were excised. After the renal cortices were shredded, mesangial cells were prepared by the Sieving's method. For the sake of comparison, "A7r5" (trade name, derived from fetal thoracic aortic smooth muscle), "Clone 9" (trade name. derived from liver), "H9 c2 (2-1)" (trade name, derived from cardiorhabdium), "IEC-18" (trade name, derived from the small intestine) and "NRK-52E" (trade name, derived from epithelial cells of renal tubule), all products of Flow Corp., U.S.A., were used as cells derived from rats.
(§3) Using as a culture medium "RPMI-1640" (trade name; product of Flow Corp.; U.S.A.) added with fetal bovine serum (product of GIBCO Corp.) whose concentration was finally 10% in the medium, those cells were cultured in a 5% CO2 incubator. Since the p-amionbenzoic acid contained in RPMI-1640 was converted to p-acetamidobenzoic acid by the above culture, detection was conducted with respect to the p-acetamidobenzoic acid so converted.
(§4) Namely, 2 ml of each culture medium after the lapse of 2 to 3 days since its culture were subjected to centrifugal ultrafiltration to eliminate proteins. One ml of the filtrate was added with 30 μl of 1N hydrochloric acid to adjust the pH to pH 1. Added next were 10 μg of p-pentylbenzoic acid, as an internal standard, and 0.5 g NaCl. The resulting mixture was shaken three times together with 3 ml portions of ethyl acetate to conduct liquid/liquid extraction of the organic acid component. After the extract was dried under a nitrogen gas stream, 40 μl of N,O-bis(trimethylsilyl)trifluoroacetamide and 10 μl of trimethylchlorosilane were added. The resulting mixture was stirred at 60° C. for 1 hour so that the organic acid component was trimethylsilylated. The trimethylsilylated organic acid component was then detected by gas chromatography mass spectrometry. The activity of acetyltransferase was evaluated by the relative height of a peak corresponding to p-acetamidobenzoic acid. The following evaluation standard was employed:-: smaller than 50,000,+: 50,000 or greater but smaller than 500,000, ++: 500,000 or greater, all in terms of abundance.

IEC-18 = assay: as above; format: cell-based, rat; conditions: IEC-18 (small intestine); culture medium after 2 to 3 days
Description: as §1, §2, §3, §4

Mesangial cells = assay: as above; format: cell-based, rat
Description: as §1, §2, §3, §4

A7r5 = assay: as above; format: cell-based, rat; conditions: A7r5 (fetal thoracic aortic smooth muscle); culture medium after 2 to 3 days
Description: as §1, §2, §3, §4

NRK-52E = assay: as above; format: cell-based, rat; conditions: NRK-52E (epithelial cells of renal tubule); culture medium after 2 to 3 days
Description: as §1, §2, §3, §4

H9c2(2-1) = assay: as above; format: cell-based, rat; conditions: H9c2(2-1) (cardiorhabdium); culture medium after 2 to 3 days
Description: as §1, §2, §3, §4

[1] = Test 4: concentrations of PAH and AcPAH in blood after Na-PAH; format: in vivo, Sprague-Dawley male rats; conditions: 40 mg Na-PAH single shot jugular vein; serum at 30, 60, 90, 120 minutes
Description: In the test, the rate of secretion of an acetyltransferase activity measuring agent according to this invention into urine was tested.
An aqueous solution of 40 mg of sodium p-aminohippurate (Na-PAH) in 200 μl of distilled water was administered as a single shot to the jugular vein of each rat under anesthesia with ethyl ether. Upon elapsed time of 30 minutes, 60 minutes, 90 minutes and 120 minutes, the concentrations of PAH and AcPAH in blood were measured by high-performance liquid chromatography. Serum was used in an amount of 50 μl each time. The pretreatment method and analysis conditions were the same as in Test 2.

[2] = Test 3: time-dependent stability of urinal AcPAH/PAH ratio after Na-PAH; format: in vivo, Sprague-Dawley male rats; conditions: 40 mg Na-PAH single shot jugular vein, 24 h urine, test repeated 7 times on different days
Description: In this test, an investigation was conducted about the time-dependent stability of test results which were obtained using an acetyltransferase activity measuring agent according to the present invention.
An aqueous solution of 40 mg of sodium p-aminohippurate (Na-PAH) in 200 μl of distilled water was administered as a single shot to the jugular vein of each rat under anesthesia with ethyl ether. The rat was then immediately placed in metabolism test cage, and urine was collected over 24 hours. The concentrations of AcPAH and PAH in urine were analyzed as in Test 2, whereby the AcPAH/PAH ratio was determined. The above test was repeated 7 times on different days so that its average value, standard deviation (S.D.) and coefficient of variations (C.V.) were determined.

[3] = Test 2: urinal AcPAH/PAH ratio after Na-PAH in renal arterial ligature rats; format: in vivo, Sprague-Dawley male rats; conditions: 40 mg Na-PAH single shot jugular vein, 24 h urine; for urinal AcPAH/PAH ratio, individual rats: day 37 after operation
Description: In this test, an investigation was conducted about the relationship, if any, between the degree of ligature of the renal artery, which serves as an index for the degree of progress of the pathema of a kidney disease, and the concentration ratio of p-acetyl-aminohippuric acid (AcPAH) to p-aminohippuric acid (PAH) in urine.
Depending on whether the renal arterial carina ligating method was applied and if so, how tight the ligating method as applied, the rats were divided into three groups, each consisting of three of the rats, that is, a sham-operation group (i.e., control), a 1/2 renal arterial ligature group (only one kidney was functioning) and a 5/6 renal arterial ligature group. On the 37th day after the operation, an aqueous solution of 40 mg of sodium p-aminohippurate (Na-PAH) in 200 μl of distilled water was administered as a single shot to the jugular vein of each rat under anesthesia with ethyl ether. The rat was then immediately placed in metabolism test cage, and urine was collected over 24 hours. The concentrations of AcPAH and PAH in urine were analyzed by high-performanceliquid chromatography in a manner to be described subsequently herein, whereby the ratio of AcPAH to PAH (AcPAH/PAH) was determined.
Namely, 150 μl of methanol, which contained 1 μg of vanillic acid as an internal standard substance, were added to 50 μl of fivefold dilute urine. After the resulting mixture was stirred and centrifuged, the supernatant was collected and was subjected to filtration by centrifugation. By high-performance liquid chromatography, 10 μl of the supernant so obtained were quantitatively analyzed under the following analysis conditions:
Column: "Unisil Pack 250B" (trade name, product of GL Science Inc.)
Mobile phase: water/acetic acid/acetonitrile=93.5/0.5/6 (pH 3, approximately)
Column oven temperature: 40° C.

[4] = 1/2 Renal arterial ligature group (n = 3)
[5] = 5/6 Renal arterial ligature group (n = 3)

Structure (SMILES): Nc1ccc(C(=O)O)cc1 [p-aminobenzoic acid]
- Evaluation results: activity of acetyltransferase by relative height of peak corresponding to p-acetamidobenzoic acid (Clone 9): - (smaller than 50,000)
- Evaluation results: activity of acetyltransferase by relative height of peak corresponding to p-acetamidobenzoic acid (IEC-18): - (smaller than 50,000)
- N-acetyltransferase activity to p-aminobenzoic acid (in words) (Mesangial cells; Mesangial cells): confirmed to have N-acetyltransferase activity
- Evaluation results: activity of acetyltransferase by relative height of peak corresponding to p-acetamidobenzoic acid (Mesangial cells; Mesangial cells from rat renal cortex, culture medium after 2 to 3 days): ++ (500,000 or greater)
- Evaluation results: activity of acetyltransferase by relative height of peak corresponding to p-acetamidobenzoic acid (A7r5): - (smaller than 50,000)
- Evaluation results: activity of acetyltransferase by relative height of peak corresponding to p-acetamidobenzoic acid (NRK-52E): - (smaller than 50,000)
- Evaluation results: activity of acetyltransferase by relative height of peak corresponding to p-acetamidobenzoic acid (H9c2(2-1)): - (smaller than 50,000)

Structure (SMILES): Nc1ccc(C(=O)NCC(=O)O)cc1 [PAH, p-aminohippuric acid]
- elimination of PAH from blood (concentration in blood versus time, FIG. 1) [1]: substantially eliminated from blood in 120 minutes after the administration

Structure (SMILES): CC(=O)Nc1ccc(C(=O)NCC(=O)O)cc1 [AcPAH, p-acetyl-aminohippuric acid]
- concentration of metabolite AcPAH in blood versus time (FIG. 2) [1]: becomes low in concentration in 120 minutes after the administration

- Urinal AcPAH/PAH, Ave. ([2]; Rat #1): 0.125
- Urinal AcPAH/PAH, Ave. ([2]; Rat #2): 0.100
- Urinal AcPAH/PAH, Ave. ([2]; Rat #3): 0.131
- urinal AcPAH/PAH ratio, Ave. [3, 4]: 0.146
- urinal AcPAH/PAH ratio, individual rats [3, 4]: 0.144 and 0.153 and 0.141
- urinal AcPAH/PAH ratio, Ave. [3, 5]: 0.250
- urinal AcPAH/PAH ratio, individual rats [3, 5]: 0.236 and 0.242 and 0.272
- urinal AcPAH/PAH ratio, Ave. ([3]; Sham-operation group (n = 3)): 0.125
- urinal AcPAH/PAH ratio, individual rats ([3]; Sham-operation group (n = 3)): 0.132 and 0.121 and 0.123
Structure (SMILES): Nc1ccc(C(=O)NCC(=O)[O-])cc1.[Na+]
